Laboratory results reported in patent US5567716A, “Trans and cis traumatic acid salts having cicatrizant activity associated to bacteriostatic, antiviral, antibiotic or antifungal activity” (priority 1992, dated 1996).

Legend:
[1] = system: E. Coli ATCC.35218; test: Antibacterial activity, diffusion method in agar-germs (2.a); assay type: cell-based
Experimental: (§1) In a Tryprone Soy Agar diffusion medium ATCC (American Type Culture Collection) standard bacterial strains are inoculated, preparing a final solution of 10^6 cfu/g (colony forming unities) of the following strains:
(§2) Every plate contains 20 ml of a medium where 2 equidistant wells having a standard diameter are Formed and in each of these wells […] of the above described bacterial solution are inoculated. 2 plates are prepared for every couple of compounds to be tested at different concentrations, and For every strain, and each of these plates is compared with a white (sterile demineralized water inoculum). After the inoculum, the plates are placed in the refrigerator to favour diffusion and temporaneously blocking bacterial growth.
(§3) The compounds hexadecyltrimethylammonium traumatate and benzyldimethylhexadecylammonium traumatare respectively versus hexadecyl trimethylammonium bromide and benzyldimethylhexadecylammonium chloride are solubilized in demineralized water to Form solutions at the concentrations: 0.1; 0.5; and 1%.
(§4) The antibacterial effect is evaluated by measuring bacterial diffusion halo around the well vs white (halo absence).

[2] = system: PS Maltophila ATCC.13637; test: as above; assay type: cell-based
Experimental: as §1, §2, §3, §4

[3] = system: Pseudomonas Aeruginosa ATCC.35422; test: as above; assay type: cell-based
Experimental: as §1, §2, §3, §4

[4] = system: Aspergillus Niger ATCC 16404; test: as above; assay type: cell-based; parameters: unit not given here
Experimental: as §1, §2, §3, §4

[5] = system: Candida Albicans ATCC.10231; test: as above; assay type: cell-based; parameters: unit not given here
Experimental: as §1, §2, §3, §4

[6] = system: PS Cepacia ATCC.25416; test: as above; assay type: cell-based; parameters: unit not given here
Experimental: as §1, §2, §3, §4

[7] = system: Stafilococcus Aureus ATCC.65380; test: as above; assay type: cell-based; parameters: unit not given here
Experimental: as §1, §2, §3, §4

[8] = system: Stafilococcus Epidermidis ATCC.14990; test: as above; assay type: cell-based; parameters: unit not given here
Experimental: as §1, §2, §3, §4

[9] = system: Streptococcus Fecalis ATCC.291212; test: as above; assay type: cell-based; parameters: unit not given here
Experimental: as §1, §2, §3, §4

[10] = system: 3T3 fibroblasts; test: Cellular proliferation of 3T3 fibroblasts, neutral red colorimetry (1.1a); assay type: cell-based, Mice
Experimental: Experiments on 3T3 fibroblasts
Mice 3T3 fibroblasts cultures sown at a 40.000/ml concentration on plates having 6 wells in a DMEM culture medium enriched with 10% calf serum are used. After 24 hours culture, the 90 prepared wells are divided in order to allow the analyses of the compounds of the invention, every compound to be tested being used respectively at a concentration of 0.1, 1 and 10 μg/ml by subsequent evaluations after 48 and 72 hours of incubation.
Hexadecyltrimethylammoniun (ETA) traumatare: solubilized in water and brought to the desired final concentrations of 0.1. 1 and 10 μg/ml by progressive dilutions;
Ethanolamine traumatate: solubilized in water and brought to the final concentrations of 0.1, 1 and 10 μg/ml by progressive dilutions;
Traumatic acid: neutralized with sodium hydroxyde and solubilized in water, then brought to the final concentrations of 0.1, 1 and 10 μg/ml by progressive dilutions with the culture medium.
The compounds are added to the cells after 24 hours culture. The cells number is measured by colorimetry with the neutral red intravital stain after 24, 48, 72 hours of incubation.

[11] = Physical chemical characteristics: solubility in water and organic solvents

| Compound | bacterial diffusion halo ([1]; sol. 0.1%) | bacterial diffusion halo ([1]; sol. 0.5%) | bacterial diffusion halo ([1]; sol. 1%) | bacterial diffusion halo ([2]; sol. 0.1%) | bacterial diffusion halo ([2]; sol. 0.5%) | bacterial diffusion halo ([2]; sol. 1%) | bacterial diffusion halo ([3]; sol. 0.1%) | bacterial diffusion halo ([3]; sol. 0.5%) | bacterial diffusion halo ([3]; sol. 1%) | bacterial diffusion halo ([4]; sol. 0.1%) | bacterial diffusion halo ([4]; sol. 0.5%) | bacterial diffusion halo ([4]; sol. 1%) | bacterial diffusion halo ([5]; sol. 0.1%) | bacterial diffusion halo ([5]; sol. 0.5%) | bacterial diffusion halo ([5]; sol. 1%) | bacterial diffusion halo ([6]; sol. 0.1%) | bacterial diffusion halo ([6]; sol. 0.5%) | bacterial diffusion halo ([6]; sol. 1%) | bacterial diffusion halo ([7]; sol. 0.1%) | bacterial diffusion halo ([7]; sol. 0.5%) | further results |
| --- | --- | --- | --- | --- | --- | --- | --- | --- | --- | --- | --- | --- | --- | --- | --- | --- | --- | --- | --- | --- | --- |
| CCCCCCCCCCCCCCCC[N+](C)(C)Cc1ccccc1.[Cl-] [BMA Chloride, benzyldimethylhexadecylammonium chloride, reference compound] | n.h. | n.h. | 13 | n.h. | n.h. | 15 | n.h. | 12 | 14 | 13 | 16 | 19 | 13 | 15 | 16 | 12 | 15 | 15 | 17 | 22 | bacterial diffusion halo ([7]; sol. 1%): 22; bacterial diffusion halo ([8]; sol. 0.1%): 15; bacterial diffusion halo ([8]; sol. 0.5%): 18; bacterial diffusion halo ([8]; sol. 1%): 19; bacterial diffusion halo ([9]; sol. 0.1%): 12; bacterial diffusion halo ([9]; sol. 0.5%): 14; bacterial diffusion halo ([9]; sol. 1%): 15 |
| NCCO.O=C(O)/C=C/CCCCCCCCC(=O)O [ethanolamine traumatate, ethanolamine trans-traumatate] |  |  |  |  |  |  |  |  |  |  |  |  |  |  |  |  |  |  |  |  | effect on cells proliferation ([10]; 0.1 μg/ml, in words): able to affect cells proliferation according to a not statistically significant trend; effect on cellular proliferation ([10]; 1 μg/ml, in words, ETA salt > ethanolamine salt = traumatic acid): able to increase cellular proliferation; cells numeration (colorimetric, neutral red) ([10]; 24 hours of incubation, 0.1 (head: μg/ml), control 0.579 ± 0.021): 0.562 ± 0.013; cells numeration (colorimetric, neutral red) ([10]; 24 hours of incubation, 1.0 (head: μg/ml), control 0.579 ± 0.021): 0.609 ± 0.033; cells numeration (colorimetric, neutral red) ([10]; 24 hours of incubation, 10.0 (head: μg/ml), control 0.579 ± 0.021): 0.553 ± 0.027; cells numeration (colorimetric, neutral red) ([10]; 48 hours of incubation, 0.1 (head: μg/ml), control 1.334 ± 0.050): 1.415 ± 0.106; cells numeration (colorimetric, neutral red) ([10]; 48 hours of incubation, 1.0 (head: μg/ml), control 1.334 ± 0.050): 1.435 ± 0.082; cells numeration (colorimetric, neutral red) ([10]; 48 hours of incubation, 10.0 (head: μg/ml), control 1.334 ± 0.050, ** p < 0.01 significant reduction): 1.415 ± 0.132; cells numeration (colorimetric, neutral red) ([10]; 72 hours of incubation, 0.1 (head: μg/ml), control 2.360 ± 0.125): 2.382 ± 0.039; cells numeration (colorimetric, neutral red) ([10]; 72 hours of incubation, 1.0 (head: μg/ml), control 2.360 ± 0.125): 2.463 ± 0.100; cells numeration (colorimetric, neutral red) ([10]; 72 hours of incubation, 10.0 (head: μg/ml), control 2.360 ± 0.125, ** p < 0.01 significant reduction): 2.408 ± 0.085; time necessary for the cells to reach the confluence ([10]; side control experiment, ETA and ethanolamine salts > traumatic acid): reduce the time normally necessary for the cells to reach the confluence; solubility ([11]; ethanol, organic solvent or mixture): > 10000 µg/mL; solubility ([11]; water): > 10000 µg/mL |
| CCCCCCCCCCCCCCCC[N+](C)(C)C.[Br-] [ETA Bromide, hexadecyltrimethylammonium bromide, reference compound] | n.h. | 13 | 15 | n.h. | 15 | 21 | n.h. | n.h. | n.h. | 19 | 22 | 22 | 19 | 24 | 25 | 18 | 19 | 22 | 21 | 24 | bacterial diffusion halo ([7]; sol. 1%): 24; bacterial diffusion halo ([8]; sol. 0.1%): 20; bacterial diffusion halo ([8]; sol. 0.5%): 22; bacterial diffusion halo ([8]; sol. 1%): 22; bacterial diffusion halo ([9]; sol. 0.1%): 20; bacterial diffusion halo ([9]; sol. 0.5%): 22; bacterial diffusion halo ([9]; sol. 1%): 22 |
| Clc1ccc(COC(C[n+]2cc[nH]c2)c2ccc(Cl)cc2Cl)c(Cl)c1.Clc1ccc(COC(C[n+]2cc[nH]c2)c2ccc(Cl)cc2Cl)c(Cl)c1.O=C([O-])/C=C/CCCCCCCCC(=O)[O-] (racemic) [miconazole trans-traumatate] |  |  |  |  |  |  |  |  |  |  |  |  |  |  |  |  |  |  |  |  | organic solvent solubility ([11]; in ethanol): > 10000 µg/mL; solubility in water ([11]; water): > 10000 µg/mL |
